Laboratory results taken from patent US4127446A, “Process for producing antibiotics mimosamycin and chlorocarcins A, B and C” (priority 1975, dated 1978).
Values after ≈ are worked out from the molar mass of the structure shown.

Test system: Mycobacterium tuberculosis SMR
Test: Antimicrobial activity of mimosamycin against tubercle bacilli (Table 4)
Type: cell-based
Settings: 672 h

COC1=C(C)C(=O)c2cc(=O)n(C)cc2C1=O [Mimosamycin]
MIC: 1.56 µg/mL (≈ 6.69 µM)
